Assay results reported in patent publication US7553866B2, “Thiolactones” (Eisai Corporation of North America, priority 2003, dated 2009).
Entries after “also recorded” stand apart in the source; their conditions may differ. Marks after values point to notes of the source that are not given here. Peptide text beside a SMILES is read from it.

Key:
C57/BL mice [1] = assay: Acute effects in the tail-flick test (Experiment 2); type: in vivo
Experimental: (§1) Male C57/BL mice (IMP, Lodz, Poland), 22-24 g of body weight were group-housed in the standard laboratory cages and kept in a temperature-controlled colony room (21±2° C.) with a 12-hour light/dark cycle (light on: 07:00, off: 19:00). Commercial food and tap water were available ad libitum. Each experimental group consisted of 7-28 mice per treatment. All mice were used only once.
(§2) The intensity of the heat stimulus was adjusted so that the baseline tail-flick latency was ˜3 seconds. […] Each response assessment consisted of two separate measurements taken at different portions of the tail (spaced by 1.5-2 cm) and separated by 15 seconds. The mean of these responses was used for subsequent comparisons.
The N is given in brackets. Presented in FIG. 5 are mean±S.E.M. Area Under Curve (AUC) values calculated on the same data.

C57/BL mice [2] = assay: animal or person; type: in vivo; details: for ED50: Mus musculus, sc
Experimental: as §1, §2

[3] = tested on: Brown Norway rats (Rattus norvegicus); assay: Experimental rat glaucoma (unilateral IOP elevation), optic nerve fiber counting; type: in vivo; details: 10 mg/kg i.p. daily; for Fiber Number: glaucoma eye optic nerve; for Percent Difference (fiber number, glaucoma vs normal eye): positive value = fewer fibers in glaucoma eye
Experimental: (§3) All experiments complied with the Association for Research in Vision and Ophthalmology Statement for the Use of Animals in Ophthalmic and Vision Research. 82 male Brown Norway rats (Rattus norvegicus), each weighing approximately 250 gm, were treated using procedures approved by the Animal Care Committee of the Johns Hopkins University School of Medicine. The rats were housed with a 12 hour light/12 hour dark cycle and fed ad libitum.
Unilateral elevation of intraocular pressure (“IOP”) was produced in 56 rats by microinjection of hypertonic saline into episcleral veins, following procedures described in Morrison, J. et al., IOVS (March 1998) 39:526-531. Beginning on the day of IOP elevation, the rats were treated daily with intraperitoneal injections of either a vehicle (23 rats with 50 mM HEPES-buffered saline) or a NAALADase inhibitor (11 rats with 10 mg/kg of Compound A and 22 rats with 10 mg/kg of Compound B). 11 saline treated rats, 11 Compound A treated rats and 11 Compound B treated rats were sacrificed at 8 weeks, and the remaining rats at 12 weeks, after initial IOP elevation.
(§4) The rats were sacrificed by exsanguination under deep pentobarbital anesthesia. They were perfused through the heart with 2% paraformaldehyde/2% glutaraldehyde in 0.1 M phosphate buffer, pH 7.2, and the eyes with attached optic nerves were removed. Cross-sections of the optic nerves from both experimental (glaucoma or transection) and control eyes was removed 1.5 mm posterior to the globe, 1 mm in thickness, and post-fixed in 2% osmium tetroxide in buffer. These were processed into epoxy resin, sectioned at 1 micron and stained with toluidine blue.
The area of each optic nerve cross-section was measured by outlining its outer border at 10× magnification on an image analysis system (Universal Imaging Corp., Westchester, Pa.) with Synsys digital camera and Metamorph software. Three area measurements were taken and the mean value was determined. To measure the density and fiber diameter distributions, images were captured with a 100× phase contrast objective from 10 different areas of each nerve. These were edited to eliminate non-neural objects and the size of each axon internal to the myelin sheath (its minimum diameter) and the density of axons/square mm were calculated for each image and nerve. The mean density was multiplied by total nerve area to yield fiber number for each nerve. The total fiber number in glaucoma or transection nerves was compared to the normal, fellow eye of each rat to yield a percent loss value. The number of axons counted among the 10 images was approximately 20% of the 80-90,000 axons in normal rat nerves. The person measuring the number of axons was masked to the protocol conducted on the nerves. […]

BB/W rats = assay: Retinal disorder (diabetic retinopathy) in BB/W rats: BM thickness and E/P ratio after 6 months of daily treatment; type: in vivo, rat; details: for BM THICKNESS (nm) ± SD: retinal capillaries
Experimental: Four groups of rats received daily insulin injections to maintain their glucose levels at about 350 mg/dl. Starting at the onset of hyperglycemia, NAALADase inhibitor 2-(3-sulfanylpropyl)-pentanedioic acid (Compound B) was administered daily for 6 months to one group of BB/W rats at a dose of 10 mg/kg and to a second group of BB/W rats at a dose of 30 mg/kg. A third group of BB/W rats and a fourth group of non-diabetic rats received daily vehicle treatment (50 mM Hepes buffered saline).
After 6 months of treatment with Compound B or vehicle treatment, the rats were sacrificed and their eyes were removed. From each rat, one eye was processed for elastase digest while the other eye was processed for transmission electron microscopy (TEM) and basement membrane (BM) thickness.
Retinal digests were prepared using elastase on retinas as described in Layer, N., Invest Ophthalmol Vis Sci (1993) 34:2097. Eyes were removed from recently killed BB/W rats (n=30) and age-matched transgenic controls (n=12). The retinas (n=12) were fixed at room temperature by immersing the whole eye (slit at limbus) in 4% (w/v) paraformaldehyde in 50 mmol/L Na—K phosphate buffer with 8% sucrose. The fixed retinas were rinsed in deionized water and were incubated for 3 minutes in a 37° C. agitating water bath in 40 units/mL elastase in Na—K phosphate buffer with 150 mmol/L NaCl and 5 mmol/L ethylenediamine tetraacetic acid (EDTA), pH 6.5. The tissues were washed overnight in 100 mmol/L Tris-HCL (pH 8.5) and then transferred to deionized water for removal of the loosened vitreous and digested neural elements by gentle agitation using the sides of closed forceps and the sides and ends of very fine brushes. After all loose tissues were removed, the retinas were incubated once more in fresh enzyme for 3 minutes and then subjected to a second overnight wash at room temperature in Tns-HCl buffer. On the third day, the retinas were again transferred to deionized water for additional removal of digested neural elements. The vascular network that was completely free of nonvascular elements was mounted flat by flotation in Ca^2+ and Mg^2+ free Dulbecco's Phosphate-Buffered Saline (PBS) on siliconized slides (#S1308, Oncor, Gaithersburg, Md.). After air drying in a dust free environment, the mounts of the retinal microvasculature were stained using periodic acid Schiff reaction and hematoxylin counterstaining, as described in Luna, L., ed. Manual of Histologic Staining Methods of the Armed Forces Institute of Pathology (1968) McGraw-Hill, New York, N.Y. The preparations were then examined by light microscopy and photographed.
The stained and intact retinal whole mounts were coded and counted, as described in Cuthbertson, R., Invest Ophthalmol Vis Sci. (1986) 27:1659-1664).
Ten fields at ×100 magnification were counted for endothelial and pericyte cells using previously described morphologic criteria (see Kuwabara, T., Arch Ophthalmol. (1960) 64:904-911). In every sample, at least 200 cells were counted from the mid zone of the retina. Mean values for endothelial cell/pericyte (E/P) ratios were initially calculated in 3 retinas from each of the 4 groups of rats.
Each eye was fixed in 4% glutaraldehyde and dissected free of sclera and choroids, then trimmed and postfixed in 1% osmium tetroxide. After dehydration and embedding, thin sections were stained with uranyl acetate and lead citrate. Initially, BM thickness of retinal capillaries from 3 non-diabetic rats receiving vehicle, 3 diabetic animals receiving 10 mg/kg Compound B, and 3 diabetic rats receiving 30 mg/kg Compound B were compared with 3 diabetic rats receiving a vehicle. At least 10 capillaries per eye from the inner nuclear and plexiform layers were photographed at a magnification of 10,000×. Exact magnification was determined for each set of negatives with a 28,800 line/inch calibration grid. Negatives were enlarged 3×. […]

[4] = tested on: Brown Norway rats (Rattus norvegicus); assay: Optic nerve transection in rats, optic nerve fiber counting; type: in vivo; details: for Fiber Number / Percent Difference (fiber number, transected vs normal eye): 10 mg/kg i.p. daily
Experimental: as §3
The optic nerve was transected unilaterally in 26 rats under intraperitoneal pentobarbital anesthesia. The conjunctiva was opened with scissors and the optic nerve was exposed by traction on extraocular muscles. The transection was performed with microscissors 5 mm posterior to the globe, with specific attention to avoidance of injury to major ocular blood vessels. Immediately after transection, the retina was examined ophthalmoscopically to assure that the retinal arterial blood supply was not disrupted. The conjunctiva was closed with absorbable suture and the eye dressed with antibiotic ointment. Beginning on the day of transection, the rats were treated daily with intraperitoneal injections of either a vehicle (9 rats with 50 mM HEPES-buffered saline) or a NAALADase inhibitor (8 rats with 10 mg/kg of Compound A and 9 rats with 10 mg/kg of Compound B). 5 saline treated rats, 3 Compound A treated rats and 4 Compound B treated rats were sacrificed at 2 weeks, and the remaining rats at 4 weeks, after transection.
as §4
The area of each optic nerve cross-section was measured by outlining its outer border at 10× magnification on an image analysis system (Universal Imaging Corp., Westchester, Pa.) with Synsys digital camera and Metamorph software. Three area measurements were taken and the mean value was determined. To measure the density and fiber diameter distributions, images were captured with a 100× phase contrast objective from 10 different areas of each nerve. These were edited to eliminate non-neural objects and the size of each axon internal to the myelin sheath (its minimum diameter) and the density of axons/square mm were calculated for each image and nerve. The mean density was multiplied by total nerve area to yield fiber number for each nerve. The total fiber number in glaucoma or transection nerves was compared to the normal, fellow eye of each rat to yield a percent loss value. The number of axons counted among the 10 images was approximately 20% of the 80-90,000 axons in normal rat nerves. The person measuring the number of axons was masked to the protocol conducted on the nerves.
Percent Difference=mean percent difference in fiber number between glaucoma and normal eye in each rat (positive value indicates fewer fibers in the glaucoma eye).

NAALADase = details: NAAG as substrate of NAALADase; cited from earlier work
[5] = diabetic BB/W rats, 10 mg/kg daily for 6 months, 10 mg/kg
[6] = diabetic BB/W rats, 10 mg/kg daily for 6 months, listed as NAALADASE INHIBITOR, 10 mg/kg
[7] = diabetic BB/W rats, 30 mg/kg daily for 6 months, 30 mg/kg
[8] = diabetic BB/W rats, 30 mg/kg daily for 6 months, listed as NAAALADASE INHIBITOR, 30 mg/kg
[9] = high dose 30 mg/kg, vs diabetic vehicle
[10] = low dose 10 mg/kg, vs diabetic vehicle
[11] = 2 weeks survival after transection
[12] = 4 weeks survival after transection

Q: What does the source list for O=C(O)CCC(CP(=O)(O)O)C(=O)O (stereo not drawn) [Compound 2-PMPA, 2-(phosphonomethyl)pentanedioic acid]?
A: effect on antinociceptive effects of morphine (C57/BL mice [1]; 100 mg/kg 2-PMPA i.p. 30 min before 1.5 or 3 mg/kg morphine s.c.): did not affect antinociceptive effects; also recorded: did not differ; tail-flick responses (AUC) compared to placebo+placebo treatment (C57/BL mice [1]; 100 mg/kg of 2-PMPA i.p. + placebo): did not affect tail-flick responses; also recorded: did not differ from placebo+placebo treatment; effect on development of morphine tolerance (C57/BL mice [2]; 50 or 100 mg/kg of 2-PMPA prior to each dose of morphine): attenuated the development of morphine tolerance

Q: For CC12CC3CC(C)(C1)CC(N)(C3)C2 [Memantine, memantine], which “effect on development of morphine tolerance” value (C57/BL mice [2]; mouse, in vivo) is on record?
A: The value was “attenuated the development of morphine tolerance; also recorded: produced an inhibition of morphine tolerance”.

Q: For O=C(O)CCC(CCCS)C(=O)O (stereo not drawn) [Compound B, 2-(3-sulfanylpropyl)pentanedioic acid], which “Fiber Number” value ([3]; 8 week group) is on record?
A: The value was 80785 ± 2121**.

Q: What about the “Percent Difference (fiber number, glaucoma vs normal eye)” value ([3]; 8 week group) of the same compound?
A: Its value is −0.82 ± 2.97%.

Q: What about the “Fiber Number” value ([3]; 12 week group) of the same compound?
A: Its value is 90504 ± 1718.

Q: What about the “Percent Difference (fiber number, glaucoma vs normal eye)” value ([3]; 12 week group) of the same compound?
A: The value was −3.21 ± 2.86%.

Q: And the “BM THICKNESS (nm) ± SD” value (BB/W rats; [5])?
A: Its value is 82.3±4.07 nm.

Q: What about the “BM THICKNESS (nm) ± SD” value (BB/W rats; [6]) of the same compound?
A: The value was 82.3 ± 4.07 nm.

Q: What about the “E/P RATIO (endothelial cell/pericyte)” value (BB/W rats; [5]) of the same compound?
A: Its value is 2.5±0.5.

Q: And the “E/P RATIO (endothelial cell/pericyte)” value (BB/W rats; [6])?
A: The value was 2.5 ± 0.5.

Q: And the “BM THICKNESS (nm) ± SD” value (BB/W rats; [7])?
A: Its value is 71.7±4.07 nm.

Q: And the “BM THICKNESS (nm) ± SD” value (BB/W rats; [8])?
A: Its value is 71.7 ± 4.07 nm.

Q: And the “E/P RATIO (endothelial cell/pericyte)” value (BB/W rats; [7])?
A: Its value is 2.0±0.9.

Q: What about the “E/P RATIO (endothelial cell/pericyte)” value (BB/W rats; [8]) of the same compound?
A: Its value is 2.0 ± 0.4.

Q: What about the “effect on body weight” value (BB/W rats; diabetic BB/W rats, 6 months of treatment) of the same compound?
A: Its value is “no effect”.

Q: And the “reduction in BM thickness” value (BB/W rats; [9])?
A: Its value is 29.0%.

Q: What about the “reduction of endothelial cell to pericyte ratios” value (BB/W rats; [9]) of the same compound?
A: The value was 33.0%.

Q: What about the “decrease in BM thickness” value (BB/W rats; [10]) of the same compound?
A: Its value is 18.5%.

Q: And the “reduction of endothelial cell to pericyte ratios” value (BB/W rats; [10])?
A: The value was 16.7%.

Q: What about the “remaining axons relative to saline-treated rats” value ([4]; 2 weeks after transection) of the same compound?
A: Its value is “twice”.

Q: And the “Fiber Number” value [4, 11]?
A: The value was 19,550 ± 11,383.

Q: And the “Percent Difference (fiber number, transected vs normal eye)” value [4, 11]?
A: Its value is 75.3 ± 14.8%.

Q: And the “Fiber Number” value [4, 12]?
A: The value was 5,162 ± 5,017.

Q: What about the “Percent Difference (fiber number, transected vs normal eye)” value [4, 12] of the same compound?
A: The value was 93.4 ± 6.2%.

Q: For CN1CC[C@]23c4c5ccc(O)c4O[C@H]2[C@@H](O)C=C[C@H]3[C@H]1C5 [Morphine, morphine], which ED50 (C57/BL mice [1]; Mus musculus, sc, read-out: antinociceptive ED50 dose) is on record?
A: The ED50 was 3 mg/kg.

Q: And the ED50 (C57/BL mice [2]; 24 h, read-out: Test #1 ED50 (morphine antinociceptive potency))?
A: Its ED50 is 1.49 ± 0.26 mg/kg.

Q: And the ED50 (C57/BL mice [2]; read-out: Test #2 ED50 (morphine antinociceptive potency))?
A: Its ED50 is 8.85 ± 2.22 mg/kg.

Q: With CC(=O)N[C@@H](CC(=O)O)C(=O)N[C@@H](CCC(=O)O)C(=O)O [NAAG, N-acetyl-aspartyl-glutamate] (Ac-Asp-Glu-OH) as the compound, how does the Km (NAALADase) read?
A: Its Km is 0.54 µM.
